pIC50: −log10 of the molar value.
Experiments:
CDK2/Cyclin E2 = biological target: T1, CDK2/Cyclin E2 (Homo sapiens, UniProt P24941); assay: CDK2/CyclinE2 Enzymatic Activity Assay (TR-FRET); type: biochemical; conditions: ATP 1 mM final, read-out: CDK2_E1 IC50
T1 construct: Recombinant protein complex CDK2/Cyclin E2, expressed from insect cell, was purchased from ProQinase
Summary of the method: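 Recombinant insect-cell CDK2/Cyclin E2 (1 nM) phosphorylated ULight-4E-BP1 (50 nM) with 1 mM ATP in HEPES pH 7.4 buffer, after 20 min compound preincubation; MgCl2 (10 mM) started the 45 min reaction at 37° C. Europium anti-phospho-4E-BP1 TR-FRET read; 9-dose IC50 by 4-parameter fit.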

CDK4/Cyclin D1 = biological target: T2, CDK4/Cyclin D1 (Homo sapiens, UniProt P11802); assay: CDK4/CyclinD1 Enzymatic Activity Assay (TR-FRET); type: biochemical; conditions: ATP 2 mM final, read-out: CDK4_D1 IC50
T2 construct: purchased ProQinase; host or cells: insect cell
T2 sequence (P11802 whole entry): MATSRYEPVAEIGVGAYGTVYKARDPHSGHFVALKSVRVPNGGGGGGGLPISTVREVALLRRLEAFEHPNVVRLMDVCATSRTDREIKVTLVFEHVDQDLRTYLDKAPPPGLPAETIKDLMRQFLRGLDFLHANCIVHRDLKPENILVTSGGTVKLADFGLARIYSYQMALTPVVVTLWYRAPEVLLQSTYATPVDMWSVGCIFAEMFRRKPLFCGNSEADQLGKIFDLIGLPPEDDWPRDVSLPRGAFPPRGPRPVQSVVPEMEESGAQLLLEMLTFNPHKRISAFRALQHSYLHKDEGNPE
T2 sequence (P24385 whole entry partner): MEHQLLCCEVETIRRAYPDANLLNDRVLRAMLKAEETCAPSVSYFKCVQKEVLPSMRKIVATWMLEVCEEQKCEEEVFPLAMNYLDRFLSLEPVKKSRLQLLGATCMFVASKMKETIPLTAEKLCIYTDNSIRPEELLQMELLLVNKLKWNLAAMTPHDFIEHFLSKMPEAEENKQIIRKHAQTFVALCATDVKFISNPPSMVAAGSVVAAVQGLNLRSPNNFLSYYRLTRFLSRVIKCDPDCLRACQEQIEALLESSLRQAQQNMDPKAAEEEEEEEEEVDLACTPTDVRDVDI
Description: CDK4/CyclinD1 Enzymatic Activity Assay
The inhibitory activity of compounds was evaluated in vitro using TR-FRET assay with white 384-well low volume microplate (Greiner Bio-One). CDK4/Cyclin D1 catalyzed phosphorylation of peptide in the presence and absence of compounds was measured and used in IC50 determination. Recombinant protein complex CDK4/Cyclin D1, expressed from insect cell, was purchased from ProQinase. Testing compounds were dissolved in DMSO at 1 mM and tested in 9-dose IC50 mode. The reaction mixture was prepared by mixing CDK4/CyclinD1 (1 nM final), ULight-4E-BP1 (100 nM final, Perkinelmer, TRF0128-D), and ATP (2 mM final) in assay buffer (20 mM of HEPES pH 7.4, 1 mM of EGTA, 0.05% BSA, 0.005% Tween 20, and 1 mM TCEP). The compound of interest in DMSO was added to each well in 3-fold serial dilution by the dispenser (TECAN D300E) to make a 9.9 μL of reaction mixture. After 20 minutes preincubation at room temperature, 0.1 μL MgCl2 (10 mM final) was added to initiate the reaction. Following a 45-minute incubation at 37° C., the reaction was stopped by addition of 2 μL of quenching buffer consisting of Lance detection buffer (Perkinelmer CR97-100C), LANCE Ultra Europium-anti-P-4E-BP1 (Perkinelmer, TRF0216-D), EDTA, and incubated at room temperature for additional 60 minutes in dark. The reaction signal was measured by Envision multimode plate reader (PerkinElmer, 2102-0010). IC50 values were determined by fitting the data to the standard 4 parameters with Hill Slope using GraphPad Prism software.

OVCAR3 p-RB = assay: pRB ICW Assay in OVCAR3 Cells; type: cell-based; conditions: Homo sapiens, OVCAR-3, incubated with compound for 2 hours
Summary of the method: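 In-Cell Western on OVCAR3: phospho-RB antibody signal with DRAQ5 counterstain read at 700 and 800 nm after fixation. Compounds were applied for 2 h at 37° C. as 9-point ½-log dilutions in duplicate; 10 μM reference compound defined full inhibition.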

pIC50 (CDK2/Cyclin E2)	pIC50 (CDK4/Cyclin D1)	pIC50 (OVCAR3 p-RB)	SMILES
≥ 7.00	≥ 7.00	6.30 to 7.00	Cc1sc(-c2nc(N[C@@H]3CCN(S(=O)(=O)c4cn(C)cn4)C[C@H]3F)ncc2C(F)(F)F)cc1C#N [Example 5, 5-(2-(((3R,4R)-3-fluoro-1-((1-methyl-1H-imidazol-4-yl)sulfonyl)piperidin-4-yl)amino)-5-(trifluoromethyl)pyrimidin-4-yl)-2-methylthiophene-3-carbonitrile]
≥ 7.00	≥ 7.00	≥ 7.00	CS(=O)(=O)N1CC[C@@H](Nc2ncc(C(F)(F)F)c(-c3cc(C(N)=O)cs3)n2)[C@H](F)C1 [Example 6, 5-(2-(((3R,4R)-3-fluoro-1-(methylsulfonyl)piperidin-4-yl)amino)-5-(trifluoromethyl)pyrimidin-4-yl)thiophene-3-carboxamide]
≥ 7.00	≥ 7.00	≥ 7.00	CS(=O)(=O)N1CC[C@H](Nc2ncc(C(F)(F)F)c(-c3cc(C(N)=O)cs3)n2)[C@H](F)C1 [Example 7, 5-(2-(((3R,4S)-3-fluoro-1-(methylsulfonyl)piperidin-4-yl)amino)-5-(trifluoromethyl)pyrimidin-4-yl)thiophene-3-carboxamide]
≥ 7.00	≥ 7.00	≥ 7.00	Cc1sc(-c2nc(N[C@H]3CCN(S(C)(=O)=O)C[C@H]3F)ncc2C(F)(F)F)cc1C(N)=O [Example 9, 5-(2-(((3R,4S)-3-fluoro-1-(methylsulfonyl)piperidin-4-yl)amino)-5-(trifluoromethyl)pyrimidin-4-yl)-2-methylthiophene-3-carboxamide]
≥ 7.00	6.30 to 7.00	6.30 to 7.00	C[C@@H]1CN(S(C)(=O)=O)CC[C@@H]1Nc1ncc(C(F)(F)F)c(-c2cc(C(N)=O)cs2)n1 [Example 10, 5-(2-(((3R,4S)-3-methyl-1-(methylsulfonyl)piperidin-4-yl)amino)-5-(trifluoromethyl)pyrimidin-4-yl)thiophene-3-carboxamide]
≥ 7.00	≥ 7.00	≥ 7.00	Cn1cc(S(=O)(=O)N2CC[C@H](Nc3ncc(C(F)(F)F)c(-c4cc(C(N)=O)cs4)n3)[C@H](F)C2)cn1 [Example 11, 5-(2-(((3R,4S)-3-fluoro-1-((1-methyl-1H-pyrazol-4-yl)sulfonyl)piperidin-4-yl)amino)-5-(trifluoromethyl)pyrimidin-4-yl)thiophene-3-carboxamide]
≥ 7.00	≥ 7.00	≥ 7.00	Cn1cnc(S(=O)(=O)N2CC[C@H](Nc3ncc(C(F)(F)F)c(-c4cc(C(N)=O)cs4)n3)[C@H](F)C2)c1 [Example 12, 5-(2-(((3R,4S)-3-fluoro-1-((1-methyl-1H-imidazol-4-yl)sulfonyl)piperidin-4-yl)amino)-5-(trifluoromethyl)pyrimidin-4-yl)thiophene-3-carboxamide]
≥ 7.00	≥ 7.00	≥ 7.00	Cn1cc(S(=O)(=O)N2CC[C@@H](Nc3ncc(C(F)(F)F)c(-c4cc(C(N)=O)cs4)n3)[C@H](F)C2)cn1 [Example 13, 5-(2-(((3R,4R)-3-fluoro-1-((1-methyl-1H-pyrazol-4-yl)sulfonyl)piperidin-4-yl)amino)-5-(trifluoromethyl)pyrimidin-4-yl)thiophene-3-carboxamide]
≥ 7.00	≥ 7.00	6.30 to 7.00	Cn1cnc(S(=O)(=O)N2CC[C@@H](Nc3ncc(C(F)(F)F)c(-c4cc(C(N)=O)cs4)n3)[C@H](F)C2)c1 [Example 14, 5-(2-(((3R,4R)-3-fluoro-1-((1-methyl-1H-imidazol-4-yl)sulfonyl)piperidin-4-yl)amino)-5-(trifluoromethyl)pyrimidin-4-yl)thiophene-3-carboxamide]
≥ 7.00	≥ 7.00	≥ 7.00	Cc1sc(-c2nc(N[C@H]3CCN(S(=O)(=O)c4cnn(C)c4)C[C@H]3F)ncc2C(F)(F)F)cc1C(N)=O [Example 15, 5-(2-(((3R,4S)-3-fluoro-1-((1-methyl-1H-pyrazol-4-yl)sulfonyl)piperidin-4-yl)amino)-5-(trifluoromethyl)pyrimidin-4-yl)-2-methylthiophene-3-carboxamide]
≥ 7.00	≥ 7.00	≥ 7.00	Cc1sc(-c2nc(N[C@H]3CCN(S(=O)(=O)c4cn(C)cn4)C[C@H]3F)ncc2C(F)(F)F)cc1C(N)=O [Example 16, 5-(2-(((3R,4S)-3-fluoro-1-((1-methyl-1H-imidazol-4-yl)sulfonyl)piperidin-4-yl)amino)-5-(trifluoromethyl)pyrimidin-4-yl)-2-methylthiophene-3-carboxamide]

Further lines, the compound ahead of its results:

SMILES	pIC50 (CDK2/Cyclin E2)	pIC50 (CDK4/Cyclin D1)	pIC50 (OVCAR3 p-RB)
Cc1sc(-c2nc(NC3CCN(S(=O)(=O)c4cn(C)cn4)CC3)ncc2C(F)(F)F)cc1C#N [Example 1, 2-Methyl-5-[2-[[1-(1-methylimidazol-4-yl)sulfonylpiperidin-4-yl]amino]-5-(trifluoromethyl)pyrimidin-4-yl]thiophene-3-carbonitrile]	≥ 7.00	≥ 7.00	≥ 7.00
Cc1cnc(-c2nc(NC3CCN(S(=O)(=O)c4cnn(C)c4)CC3)ncc2C(F)(F)F)s1 [Example 2, N-(1-((1-methyl-1H-pyrazol-4-yl)sulfonyl)piperidin-4-yl)-4-(5-methylthiazol-2-yl)-5-(trifluoromethyl)pyrimidin-2-amine]	≥ 7.00	≥ 7.00	≥ 7.00
Cn1cnc(S(=O)(=O)N2CCC(Nc3ncc(C(F)(F)F)c(-c4ncc(CC(C)(C)O)s4)n3)CC2)c1 [Example 3, 2-Methyl-1-(2-(2-((1-((1-methyl-1H-imidazol-4-yl)sulfonyl)piperidin-4-yl)amino)-5-(trifluoromethyl)pyrimidin-4-yl)thiazol-5-yl)propan-2-ol]	≥ 7.00	≥ 7.00	≥ 7.00
Cc1sc(-c2nc(N[C@@H]3CCN(S(=O)(=O)c4cnn(C)c4)C[C@H]3F)ncc2C(F)(F)F)cc1C#N [Example 4, 5-(2-(((3R,4R)-3-fluoro-1-((1-methyl-1H-pyrazol-4-yl)sulfonyl)piperidin-4-yl)amino)-5-(trifluoromethyl)pyrimidin-4-yl)-2-methylthiophene-3-carbonitrile]	≥ 7.00	≥ 7.00	6.30 to 7.00
Cc1sc(-c2nc(N[C@@H]3CCN(S(C)(=O)=O)C[C@H]3F)ncc2C(F)(F)F)cc1C(N)=O [Example 8, 5-(2-(((3R,4R)-3-fluoro-1-(methylsulfonyl)piperidin-4-yl)amino)-5-(trifluoromethyl)pyrimidin-4-yl)-2-methylthiophene-3-carboxamide]	≥ 7.00	≥ 7.00	≥ 7.00
C[C@@H]1CN(S(C)(=O)=O)CC[C@@H]1Nc1ncc(C(F)(F)F)c(-c2ncc(C3(O)CC3)s2)n1 [Example 151, 1-(2-(2-(((3R,4S)-3-methyl-1-(methylsulfonyl)piperidin-4-yl)amino)-5-(trifluoromethyl)pyrimidin-4-yl)thiazol-5-yl)cyclopropan-1-ol]	≥ 7.00	–	< 6.30
CC(C)(O)Cc1cnc(-c2nc(N[C@H]3CCN(S(C)(=O)=O)C[C@H]3F)ncc2Cl)s1 [Example 152, 1-(2-(5-chloro-2-(((3R,4S)-3-fluoro-1-(methylsulfonyl)piperidin-4-yl)amino)pyrimidin-4-yl)thiazol-5-yl)-2-methylpropan-2-ol]	≥ 7.00	–	6.30 to 7.00
CC(C)(O)Cc1cnc(-c2nc(N[C@H]3CCN(S(C)(=O)=O)C[C@H]3F)ncc2C#N)s1 [Example 153, 2-(((3R,4S)-3-fluoro-1-(methylsulfonyl)piperidin-4-yl)amino)-4-(5-(2-hydroxy-2-methylpropyl)thiazol-2-yl)pyrimidine-5-carbonitrile]	≥ 7.00	–	< 6.30
CC(C)(O)Cc1cnc(-c2nc(N[C@H]3CCN(S(C)(=O)=O)C[C@H]3F)ncc2C(F)F)s1 [Example 154, 1-(2-(5-(difluoromethyl)-2-(((3R,4S)-3-fluoro-1-(methylsulfonyl)piperidin-4-yl)amino)pyrimidin-4-yl)thiazol-5-yl)-2-methylpropan-2-ol]	≥ 7.00	–	< 6.30

Source: patent US20240150340A1, “CDK Inhibitors And Their Use As Pharmaceuticals” (Prelude Therapeutics Incorporated, priority 2022, published 2024)
